Measurements from patent KR20070023630A, “티로신 키나제 억제제로서의 퀴나졸린 유도체” (아스트라제네카 아베, priority 2003, dated 2005).

System: erbB2 phosphorylation in MCF7-derived cell line (MCF7 유래의 세포주에서 erbB2의 인산화)
Assay: Test (c): clone 24 phospho-erbB2 cell assay
Assay type: cell-based
Conditions: Homo sapiens, clone 24 cells (MCF7-derived, overexpressing full-length erbB2), read-out: IC50 test (c): inhibition of erbB2 tyrosine kinase protein phosphorylation

Compound | IC50 [nM]
CN(C)CC(=O)N1CCC(Oc2ccc3ncnc(Nc4ccc(OCc5ccccn5)c(Cl)c4)c3c2)CC1 [실시예 8, N-[3-클로로-4-(피리딘-2-일메톡시)페닐]-6-({1-[(디메틸아미노)아세틸]피페리딘-4-일}옥시)퀴나졸린-4-아민] | 210
CN(C)CC(=O)N1CCC(Oc2ccc3ncnc(Nc4ccc(OCc5cnccn5)c(Cl)c4)c3c2)CC1 [실시예 9, N-[3-클로로-4-(피라진-2-일메톡시)페닐]-6-({1-[(디메틸아미노)아세틸]피페리딘-4-일}옥시)퀴나졸린-4-아민] | 150
CS(=O)(=O)N1CCC(COc2ccc3ncnc(Nc4ccc(OCc5ccccn5)c(Cl)c4)c3c2)C1 (stereo not drawn) [실시예 14, N-[3-클로로-4-(피리딘-2-일메톡시)페닐]-6-{[1-(메틸술포닐)피롤리딘-3-일]메톡시}퀴나졸린-4-아민] | 4
